This is an account of results in patent US20240336568A1, “SELECTIVE PHD1 INHIBITOR COMPOUNDS, COMPOSITIONS, AND METHODS OF USE” (Akebia Therapeutics, Inc., priority 2021, published 2024).

The assay relates to full-length human prolyl-4-hydroxylase domain (PHD) enzymes, PHD1 and PHD2. Briefly: TR-FRET assay, selectivity of compounds for PHD1 over PHD2 (ratio of Kis calculated from IC50s). Format: biochemical. Conditions: ratio of Kis (PHD2 Ki/PHD1 Ki), Kis calculated from TR-FRET IC50s by Cheng Prussoff equation; 1 uM 2-OG. From the text: Time-resolved fluorescence resonance energy transfer (TR-FRET) assay was utilized to determine the enzymatic half maximal inhibitory concentration (IC50) value of PHD inhibitors against the full-length human prolyl-4-hydroxylase domain (PHD) enzymes, PHD1 and PHD2. The TR-FRET assay was developed based on the specific binding of hydroxylated HIF-la peptide with the complex formed by VHL, EloB and EloC (VBC), to generate a fluorescent signal. Terbium (Tb)-Donor (monoclonal antibody anti-6His-Tb-cryptate Gold) and D2-acceptor (streptavidin [SA]-D2) of TR-FRET are linked to the VBC complex and to HIF-1α peptide, respectively. The VBC complex binds specifically to the HIF-1α peptide when it is hydroxylated, allowing energy transfer from TR-FRET donor to acceptor (FIG. 1).
TR-FRET Reagents. Monoclonal antibody anti-6His-Tb-cryptate Gold (catalog #61HI2TLA) and streptavidin (SA)-D2 (catalog #610SADLA) were purchased from CisBio International (Bedford, MA, USA).
N-terminus biotinylated HIF-1α C35 synthetic peptide representing amino acids 547 to 581 and including the proline 564 PHD2 hydroxylation site was purchased from California Peptide Research (Salt Lake City, UT, USA).
VBC Complex. His-tagged recombinant VHL protein, EloB, EloC complex (His-VBC) was supplied by Axxam (Milan, Italy). Recombinant human VHL (National Center for Biotechnology Information [NCBI] accession number NP_00542.1) contained a His tag at the C-terminus of amino acids 55 to 213 and is referred to as VHL-His. VHL-His was co-expressed in E. coli with full-length human EloB (NCBI accession number Q15370.1) and full-length human EloC (NCBI accession number Q15369.1) and purified by affinity chromatography on a nickel-nitrilotriacetic acid (Ni-NTA) column as the His-VBC complex. Purity (˜80%) was assessed by sodium dodecyl sulfate polyacrylamide gel electrophoresis (SDS-PAGE).
PHD1. Recombinant human PHD1 protein (catalog #81064, Lot #24717001) was purchased from Active Motif (Carlsbad, CA, USA). PHD1 was expressed in a baculovirus expression system as the full-length protein (NCBI accession number NP_542770.2) with an N-terminal FLAG tag (molecular weight 44.9 kDa). Purity (>90%) was assessed by SDS-PAGE.
PHD2. The full-length human PHD2 enzyme was produced with a baculovirus infected insect cell (BIIC) expression system by Beryllium (Bedford, MA, USA). The PHD2 construct contained amino acids 1 to 426 of PHD2 (UniProt Knowledgebase[UniProtKB]/Swiss-Prot accession number Q9GZT9.1), and a His tag and a Tobacco Etch Virus (TEV) protease cleavage site at the N-terminus. The construct was expressed in Sf9 insect cells, purified by Ni-NTA column and digested with TEV protease to remove the His tag.
Compounds were preincubated with PHD enzyme in a 10 μL reaction volume in white 384-well Optiplate microplates (catalog #6007290, Perkin Elmer, Waltham, MA, USA). For this, 5 μL compound was serially diluted with dilution buffer (50 mM HEPES [4-(2-hydroxyethyl)-1-piperazineethanesulfonic acid] pH 7.5, 50 mM sodium chloride [NaCl], 0.01% Tween-20, 0.01% purified bovine serum albumin [BSA]) and mixed with 5 μL PHD enzyme mix prepared as a 4× concentrate in the dilution buffer containing PHD enzyme (60 nM PHD1, 20 nM PHD2, 140 nM PHD3), 40 μM ferrous ammonium sulfate (FAS), 4 mM sodium (Na) ascorbate. The plates were incubated for 30 minutes at room temperature without rotation.
Five microliters of the VBC/anti-6His-Tb-cryptate Gold mix prepared as a 4× concentrate in dilution buffer containing 20 nM His-VBC, 1.32 nM monoclonal antibody anti-6His-Tb-cryptate Gold was then added. This step was followed immediately by the addition of 5 μL of the HIF-1α C35 substrate mix prepared as a 4× concentrate in the dilution buffer containing 120 nM biotin-labeled HIF-1α C35, 132 nM SA-D2, 4 μM 2-oxoglutarate (2-OG) to reach a final reaction volume of 20 μL. […]
Take `CC(C)(CNC(=O)c1ncc(-c2cnn(CCN3CCOCC3)c2)cc1O)C(=O)O` [compound 19, 3-(3-hydroxy-5-(1-(2-morpholinoethyl)-1H-pyrazol-4-yl)picolinamido)-2,2-dimethylpropanoic acid]: the “Selectivity of PHD1 over PHD2” value is roughly 495 fold.

In the case of `CCOc1ccc2cc(-c3cnc(C(=O)NCC(C)(C)C(=O)O)c(O)c3)ccc2c1` [compound 58, 3-(5-(6-ethoxynaphthalen-2-yl)-3-hydroxypicolinamido)-2,2-dimethylpropanoic acid], the “Selectivity of PHD1 over PHD2” value is listed as roughly 911 fold.

With `O=C(O)CCNC(=O)c1ncc(-c2cnn(-c3ccccc3)c2)cc1O` [compound 54, 3-(3-hydroxy-5-(1-phenyl-1H-pyrazol-4-yl)picolinamido)propanoic acid], the “Selectivity of PHD1 over PHD2” value is roughly 11 fold.

`Cc1cccc2cc(-c3cnc(C(=O)NCC(C)(C)C(=O)O)c(O)c3)cnc12` [compound 40, 3-(3-hydroxy-5-(8-methylquinolin-3-yl)picolinamido)-2,2-dimethylpropanoic acid]: the “Selectivity of PHD1 over PHD2” value is listed as roughly 20 fold.

With `CC(C)(CC(=O)O)NC(=O)c1ncc(-c2cccc(Cl)c2)cc1O` [compound 1, 3-(5-(3-chlorophenyl)-3-hydroxypicolinamido)-3-methylbutanoic acid], the “Selectivity of PHD1 over PHD2” value is listed as roughly 14 fold.

Regarding `CC(C)(CNC(=O)c1ncc(-c2cnn(-c3ccccc3)c2)cc1O)C(=O)O` [compound 6, 3-(3-Hydroxy-5-(1-phenyl-1H-pyrazol-4-yl)picolinamido)-2,2-dimethylpropanoic acid], the “Selectivity of PHD1 over PHD2” value was roughly 249 fold.

In the case of `CC(C)(CNC(=O)c1ncc(-c2ccc3ccncc3c2)cc1O)C(=O)O` [compound 43, 3-(3-hydroxy-5-(isoquinolin-7-yl)picolinamido)-2,2-dimethylpropanoic acid], the “Selectivity of PHD1 over PHD2” value is reported as roughly 1875 fold.

As for `CC(C)(CNC(=O)c1ncc(-c2ccc3nccnc3c2)cc1O)C(=O)O` [compound 46, 3-(3-hydroxy-5-(quinoxalin-6-yl)picolinamido)-2,2-dimethylpropanoic acid], the “Selectivity of PHD1 over PHD2” value is roughly 124 fold.

For the compound `C[C@@H](CC(=O)O)NC(=O)c1ncc(-c2cccc(Cl)c2)cc1O` [compound 2, (S)-3-(5-(3-chlorophenyl)-3-hydroxypicolinamido)butanoic acid], the “Selectivity of PHD1 over PHD2” value was roughly 16 fold.

As to `CC(C)(CNC(=O)c1ncc(-c2cccc(NCc3ccc(Cl)cc3)c2)cc1O)C(=O)O` [compound 30, 3-(5-(3-((4-Chlorobenzyl)amino)phenyl)-3-hydroxypicolinamido)-2,2-dimethylpropanoic acid], the “Selectivity of PHD1 over PHD2” value is reported as roughly 223 fold.

Regarding `CC(C)(CNC(=O)c1ncc(-c2cccc(-c3cccnc3)c2)cc1O)C(=O)O` [compound 15, 3-(3-hydroxy-5-(3-(pyridin-3-yl)phenyl)picolinamido)-2,2-dimethylpropanoic acid], the “Selectivity of PHD1 over PHD2” value is listed as roughly 125 fold.

For `CC(C)(CNC(=O)c1ncc(-c2cnn3c2CCCC3)cc1O)C(=O)O` [compound 38, 3-(3-hydroxy-5-(4,5,6,7-tetrahydropyrazolo[1,5-a]pyridin-3-yl)picolinamido)-2,2-dimethylpropanoic acid], the “Selectivity of PHD1 over PHD2” value is reported as roughly 49 fold.

With `Cc1ccc2ccc(-c3cnc(C(=O)NCC(C)(C)C(=O)O)c(O)c3)c(F)c2n1` [compound 44, 3-(5-(8-fluoro-2-methylquinolin-7-yl)-3-hydroxypicolinamido)-2,2-dimethylpropanoic acid], the “Selectivity of PHD1 over PHD2” value is given as roughly 1833 fold.

For the compound `CC(CNC(=O)c1ncc(-c2cnn(-c3ccccc3)c2)cc1O)C(=O)O` (centres unmarked) [compound 50, 3-(3-hydroxy-5-(1-phenyl-1H-pyrazol-4-yl)picolinamido)-2-methylpropanoic acid], the “Selectivity of PHD1 over PHD2” value was roughly 50 fold.

Consider `CC(C)(CNC(=O)c1ncc(-c2cnn(-c3cccc(C(F)(F)F)c3)c2)cc1O)C(=O)O` [compound 37, 3-(3-hydroxy-5-(1-(3-(trifluoromethyl)phenyl)-1H-pyrazol-4-yl)picolinamido)-2,2-dimethylpropanoic acid], for which the “Selectivity of PHD1 over PHD2” value is reported as roughly 25 fold.

For `CC(C)(CNC(=O)c1ncc(-c2ccc3cc(NS(C)(=O)=O)ccc3c2)cc1O)C(=O)O` [compound 59, 3-(3-hydroxy-5-(6-(methylsulfonamido)naphthalen-2-yl)picolinamido)-2,2-dimethylpropanoic acid], the “Selectivity of PHD1 over PHD2” value is on record as roughly 88 fold.

On to `CC(C)(CNC(=O)c1ncc(-c2cccc(OCC3CC3)c2)cc1O)C(=O)O` [compound 12, 3-(5-(3-(cyclopropylmethoxy)phenyl)-3-hydroxypicolinamido)-2,2-dimethylpropanoic acid], for which the “Selectivity of PHD1 over PHD2” value was roughly 1984 fold.

Consider `CCCn1cc(-c2cnc(C(=O)NCC(C)(C)C(=O)O)c(O)c2)cn1` [compound 7, 3-(3-hydroxy-5-(1-propyl-1H-pyrazol-4-yl)picolinamido)-2,2-dimethylpropanoic acid], for which the “Selectivity of PHD1 over PHD2” value is on record as roughly 503 fold.

Consider `COc1ccc2cc(-c3cnc(C(=O)NCC(C)(C)C(=O)O)c(O)c3)ccc2c1` [compound 41, 3-(3-hydroxy-5-(6-methoxynaphthalen-2-yl)picolinamido)-2,2-dimethylpropanoic acid], for which the “Selectivity of PHD1 over PHD2” value is listed as roughly 1960 fold.

Regarding `CC(C)(CNC(=O)c1ncc(-c2ccc3c(=O)[nH]ncc3c2)cc1O)C(=O)O` [compound 57, 3-(3-hydroxy-5-(1-oxo-1,2-dihydrophthalazin-6-yl)picolinamido)-2,2-dimethylpropanoic acid], the “Selectivity of PHD1 over PHD2” value is given as roughly 64 fold.

As for `CC(C)(CNC(=O)c1ncc(-c2cnn(-c3ccc(Cl)cc3Cl)c2)cc1O)C(=O)O` [compound 34, 3-(5-(1-(2,4-dichlorophenyl)-1H-pyrazol-4-yl)-3-hydroxypicolinamido)-2,2-dimethylpropanoic acid], the “Selectivity of PHD1 over PHD2” value was roughly 24 fold.

Take `Cc1c(-c2cnc(C(=O)NCC(C)(C)C(=O)O)c(O)c2)ccc2ccccc12` [compound 60, 3-(3-hydroxy-5-(1-methylnaphthalen-2-yl)picolinamido)-2,2-dimethylpropanoic acid]: the “Selectivity of PHD1 over PHD2” value is recorded as roughly 204 fold.

For `CC(C)(CNC(=O)c1ncc(-c2cccc(OCCc3ccc(Cl)cc3)c2)cc1O)C(=O)O` [compound 31, 3-(5-(3-(4-chlorophenethoxy)phenyl)-3-hydroxypicolinamido)-2,2-dimethylpropanoic acid], the “Selectivity of PHD1 over PHD2” value is roughly 40 fold.

In the case of `CC(C)(CNC(=O)c1ncc(-c2cccc(CN3CCCC3)c2)cc1O)C(=O)O` [compound 10, 3-(3-hydroxy-5-(3-(pyrrolidin-1-ylmethyl)phenyl)picolinamido)-2,2-dimethylpropanoic acid], the “Selectivity of PHD1 over PHD2” value is roughly 95 fold.

In the case of `CC(C)(CNC(=O)c1ncc(-c2ccc3ccccc3c2)cc1O)C(=O)O` [compound 17, 3-(3-hydroxy-5-(naphthalen-2-yl)picolinamido)-2,2-dimethylpropanoic acid], the “Selectivity of PHD1 over PHD2” value is recorded as roughly 1031 fold.

Regarding `CC(C)(CNC(=O)c1ncc(-c2scc3c2OCCO3)cc1O)C(=O)O` [compound 56, 3-(5-(2,3-dihydrothieno[3,4-b][1,4]dioxin-5-yl)-3-hydroxypicolinamido)-2,2-dimethylpropanoic acid], the “Selectivity of PHD1 over PHD2” value was roughly 44 fold.
